One block for each compound: values may come before it. Calls of active or inactive are those of the source. For most assays here, no stated cut-off is given here; in the data, actives have a measured EC50 and inactives only a lower limit.
What was measured:
[1] = inhibitors of intracellular T. cruzi replication, confirmation, NIH3T3 host cells, beta-gal luminescence (AID 2044); assay type: functional, cell-based;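 further: intracellular parasites grown in NIH/3T3 mouse fibroblasts as host cells; luminescent beta-galactosidase reporter signal from transgenic T. cruzi replicating inside host cells; inhibitors lower the luminescence signal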
[2] = cytotoxicity toward NIH3T3 fibroblasts, dose response, counter-screen, cell-based, ATP luminescence, mouse fibroblasts (AID 2010); assay type: functional;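 further: cells exposed to compound for about 90 hours before reading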
[3] = molecular target: T1, Heat shock factor protein 1 (Mus musculus, UniProt P38532); assay: inhibition of MG132-induced HSE-luciferase signal, confirmation, cell-based, NIH3T3, luminescence, dose retest (AID 2382); assay type: functional;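 further: NIH3T3 fibroblasts with HSF1-driven luciferase reporter stressed by proteasome inhibitor MG132; luminescence from HSF1-driven luciferase expression after 8 hours of MG132 stress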
T1 sequence (P38532 whole entry): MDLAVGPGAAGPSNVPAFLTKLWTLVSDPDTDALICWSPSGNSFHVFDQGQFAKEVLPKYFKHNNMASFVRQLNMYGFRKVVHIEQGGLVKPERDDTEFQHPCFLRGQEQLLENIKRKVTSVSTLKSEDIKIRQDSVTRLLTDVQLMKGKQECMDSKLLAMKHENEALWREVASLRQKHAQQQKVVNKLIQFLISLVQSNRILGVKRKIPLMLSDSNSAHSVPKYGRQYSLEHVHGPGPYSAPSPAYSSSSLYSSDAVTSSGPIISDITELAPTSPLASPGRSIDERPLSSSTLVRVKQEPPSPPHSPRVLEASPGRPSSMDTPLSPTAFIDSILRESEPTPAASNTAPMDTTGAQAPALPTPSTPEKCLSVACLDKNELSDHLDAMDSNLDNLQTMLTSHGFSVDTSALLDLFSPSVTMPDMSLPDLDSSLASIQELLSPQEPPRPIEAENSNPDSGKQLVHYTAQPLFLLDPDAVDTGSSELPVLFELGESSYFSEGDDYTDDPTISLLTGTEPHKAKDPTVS

[4] = molecular target: T2, Corticotropin-releasing factor receptor 2/Corticotropin-releasing factor-binding protein (Homo sapiens, UniProt P24387+Q13324); assay: activators of CRF receptor 2 with binding protein – uHTS hits, confirmation (AID 602473); assay type: functional; settings: read-out: EC50_Mean
T2 sequence (Q13324 whole entry): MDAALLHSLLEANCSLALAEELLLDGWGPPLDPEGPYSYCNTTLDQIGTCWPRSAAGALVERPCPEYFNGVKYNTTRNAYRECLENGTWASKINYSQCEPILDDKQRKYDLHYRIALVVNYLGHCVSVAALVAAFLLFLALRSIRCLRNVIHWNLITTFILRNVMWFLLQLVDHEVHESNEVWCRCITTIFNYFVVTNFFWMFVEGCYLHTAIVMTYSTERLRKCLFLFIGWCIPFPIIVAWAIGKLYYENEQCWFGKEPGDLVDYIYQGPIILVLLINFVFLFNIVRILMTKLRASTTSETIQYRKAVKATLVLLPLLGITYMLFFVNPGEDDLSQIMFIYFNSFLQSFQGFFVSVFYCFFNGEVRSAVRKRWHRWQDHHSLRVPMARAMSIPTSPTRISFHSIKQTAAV
T2 sequence (P24387 whole entry): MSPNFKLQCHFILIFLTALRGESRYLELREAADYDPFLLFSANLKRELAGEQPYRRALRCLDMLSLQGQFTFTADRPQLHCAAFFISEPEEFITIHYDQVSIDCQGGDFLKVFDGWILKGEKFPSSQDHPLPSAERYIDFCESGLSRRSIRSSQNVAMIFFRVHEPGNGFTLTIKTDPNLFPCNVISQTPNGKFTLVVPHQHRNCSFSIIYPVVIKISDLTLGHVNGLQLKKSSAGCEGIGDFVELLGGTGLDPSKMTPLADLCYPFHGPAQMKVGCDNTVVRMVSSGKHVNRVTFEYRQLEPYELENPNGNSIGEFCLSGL

Streptococcus = assay: Group A Streptococcus viability loss, dose response, counter-screen for streptokinase expression inhibitor project, luminescence, BacTiterGlo (AID 1915); assay type: functional, organism-based;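 further: potency for reduction of bacterial viability or growth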
[5] = test system: Streptococcus sp. 'group A'; assay: growth inhibition of control SK(-) GAS strain, dose response, counter-screen for streptokinase expression inhibitor project, luminescence, kanamycin, BacTiterGlo, confirmation (AID 1900); assay type: functional, organism-based
[6] = Luminescence Cell-Based Dose Retest to Confirm Inhibitors of Cancer Stem Cells. [Related pubchem assays (depositor defined):AID2717, AID2721]; assay type: functional; settings: Homo sapiens
[7] = growth suppression of PTEN-null colon cells, dose response, cell-based, HCT116 PTEN knockout (AID 1047); assay type: functional;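 further: HCT116 colon tumor cells with PTEN knocked out; cells exposed to compound for 60 hours before readout; potency for loss of cell viability measured by luminescence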
[8] = growth suppression of beta-catenin-knockout colon cells, dose response, cell-based, HCT116, human colon tumor (AID 1045); assay type: functional;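 further: HCT116 colon tumor cells with beta catenin knocked out; cells exposed to compound for 60 hours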
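Wherever AC50 is given: cells exposed to compound for roughly 70 hours or longer before luminescence read.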

Compound: CN(C)c1nc(NCc2ccccc2)nc(SCC(=O)Nc2ccc(Cl)c(Cl)c2)n1
EC50 [1]: 2.15 µM (active)
EC50 [2]: > 60 µM (inconclusive)

Compound: COc1ccc(N2CCN(c3ncnc4scc(-c5ccc(C)cc5)c34)CC2)cc1
EC50 [1]: 2.69 µM (active)
EC50 [2]: > 60 µM (not active)

EC50 [3]: > 195 µM (not active)
Compound: CCN1CC2([N+](=O)[O-])C=CC(=O)C([N+](=O)[O-])(C1)C2CC(=O)c1ccccc1 (stereo not drawn)

EC50 [4]: 2.05 µM (active)
Compound: CCCNC(=O)Cn1c(=O)/c(=C/c2ccc(-c3ccc([N+](=O)[O-])cc3)o2)s/c1=C\C(=O)C(C)(C)C

Compound: O=C(Cc1csc(Nc2nc(S)nc3ccccc23)n1)NCCCN1CCN(c2cccc(Cl)c2)CC1
EC50 (Streptococcus): > 150 µM (not active)
EC50 [5]: 8.14 µM (active)

Compound: CC1(C)C(=O)N(c2ccccc2)C1c1ccccc1O (stereo not drawn)
AC50 [6]: 2.95 µM (active)

Compound: COC(=O)NC(=S)Nc1ccc(Oc2ccc(Cl)cc2Cl)c(Cl)c1
EC50 [1]: 1.83 µM (active)
EC50 [2]: > 60 µM (not active)

Compound: O=C(CCc1ccccc1)Nc1ncc([N+](=O)[O-])s1
EC50 [1]: 0.951 µM (active)
EC50 [2]: > 60 µM (not active)

Compound: COc1ccc2c(c1)C=C(CN1CCN(Cc3ccccc3C)C(CCO)C1)CO2 (stereo not drawn)
EC50 [1]: 0.391 µM (active)
EC50 [2]: > 30 µM (not active)

Compound: COc1cc(C2SCC(=O)N2CCCN(C)C)cc(OC)c1OC (stereo not drawn)
EC50 [1]: 0.264 µM (active)
EC50 [2]: > 60 µM (not active)

Compound: COc1ccc(CN(C(=O)Cc2cccs2)C(C(=O)NC2CCCC2)c2ccncc2)cc1 (stereo not drawn)
EC50 [1]: 2.22 µM (active)
EC50 [2]: 50.8 µM (active)

Compound: Cc1ccc(-n2c(SCC(=O)N3c4ccccc4Sc4ccccc43)nnc2-c2ccncc2)cc1
EC50 [1]: 0.345 µM (active)
EC50 [2]: > 60 µM (not active)

EC50 [3]: > 195 µM (not active)
Compound: CCOC(=O)Cn1c(COc2ccccc2OC)[n+](C)c2ccccc21

Compound: O=c1cc(N2CCCCC2)c(-c2ccccc2)nn1Cc1cccc(Cl)c1
AC50 [6]: 3.6 µM (active)

Compound: Clc1cccc(Nc2nc(-c3cccnc3)cs2)c1
EC50 [1]: 1.23 µM (active)
EC50 [2]: > 60 µM (not active)

Compound: CC(NC(=O)c1cccnc1)C(c1cccs1)N1CCOCC1 (stereo not drawn)
EC50 [1]: > 60 µM (not active)
EC50 [2]: > 60 µM (not active)

Compound: CN(C(=O)CSc1nc(C2CC2)nc2ccccc12)c1nc(-c2ccccc2)cs1
EC50 [7]: 14.7 µM (active)
EC50 [8]: 12.7 µM (active)

Compound: COc1ccc(C(=O)C2CCCN(C3CSCCSC3)C2)c(OC)c1 (stereo not drawn)
AC50 [6]: 0.939 µM (active)

EC50 [3]: 41.2 µM (active)
Compound: Nc1ccc(C23CC4CC(CC(O)(C4)C2)C3)cc1

Compound: COc1ccc(C2=NN(CN3C(=O)C(=O)c4ccccc43)C(c3ccc(Br)cc3)C2)cc1 (stereo not drawn)
EC50 [7]: 27.3 µM (active)
EC50 [8]: 26.2 µM (active)

Compound: O=C(N/N=C/c1cc(Br)cc(Br)c1O)c1cccc(S(=O)(=O)N2CCOCC2)c1
EC50 (Streptococcus): 3.91 µM (active)
EC50 [5]: 0.765 µM (active)

EC50 [3]: > 195 µM (not active)
Compound: CCn1c(=O)c2c3c(sc2n2cnnc12)CCC3

EC50 [4]: > 53 µM (inactive)
Compound: CCCCCn1nc(C)c(/C=N\NC(=O)c2cc(C)oc2C)c1C

EC50 [3]: > 195 µM (not active)
Compound: COc1ccccc1-n1c(S)nnc1CNC(=O)c1cccc([N+](=O)[O-])c1C

Compound: COc1cc(OC)c(OC)cc1CN1CCCC(C(=O)c2ccccc2SC)C1 (stereo not drawn)
EC50 [1]: 0.138 µM (active)
EC50 [2]: > 60 µM (not active)

Compound: CCC(O)(CC)C(=O)N/N=C/c1cc(Br)cc(Br)c1O
EC50 (Streptococcus): 3.08 µM (active)
EC50 [5]: 2.9 µM (active)
AC50 [6]: 12.6 µM (active)

Compound: CCOC(=O)c1c(NC(=O)c2nn(CC)cc2Br)sc2c1CCCCC2
AC50 [6]: 1.12 µM (active)

EC50 [3]: > 195 µM (not active)
Compound: CC1CCN(CC(=O)NC2CCCCC2)CC1

Compound: Cc1ccc(C(C(=O)NCc2ccco2)N(C(=O)CNC(=O)c2cccs2)c2c(C)cccc2C)cc1 (stereo not drawn)
EC50 [7]: 6.55 µM (active)
EC50 [8]: 8.32 µM (active)

Compound: COc1ccc(-c2nc3ccccc3c(=O)n2-c2cccnc2)cc1
EC50 [3]: > 195 µM (not active)

Compound: CC1CC1C(=O)N1CCN(S(=O)(=O)c2cc(C(F)(F)F)cc(C(F)(F)F)c2)CC1 (stereo not drawn)
AC50 [6]: 2.76 µM (active)

Compound: O=[N+]([O-])c1cn(-c2nc(-c3ccco3)cc(C(F)(F)F)n2)cn1
EC50 [1]: 0.723 µM (active)
EC50 [2]: > 30 µM (not active)

Compound: COc1cc2c(cc1OC)C(c1cc3cccc(C)c3nc1O)N(C(=O)c1ccco1)CC2 (stereo not drawn)
EC50 [1]: 3.44 µM (active)
EC50 [2]: 10.5 µM (active)

EC50 [3]: > 195 µM (not active)
Compound: COc1ccc2nc(Cl)c(C#N)cc2c1

Compound: CC1CC(C)CN(S(=O)(=O)c2ccc(C(=O)Nc3nnc(C4CC4)o3)cc2)C1 (stereo not drawn)
EC50 (Streptococcus): 5.33 µM (active)
EC50 [5]: 1.25 µM (active)

Compound: Cc1cccc(Oc2cc(NC(=O)Cn3cnc([N+](=O)[O-])n3)cc([N+](=O)[O-])c2)c1
EC50 [7]: 36.1 µM (active)
EC50 [8]: 28.7 µM (active)

EC50 [3]: > 195 µM (not active)
Compound: O=C(CCCCn1c(=O)[nH]c2ccsc2c1=O)NCc1cccnc1

EC50 [4]: 7.63 µM (active)
Compound: O=C(CCCNC1=NS(=O)(=O)c2ccccc21)OCC(=O)c1ccc(F)c(F)c1

Compound: Cc1cccc(C)c1N=C(S)N(Cc1ccccc1)Cc1cccnc1
EC50 [1]: 1.46 µM (active)
EC50 [2]: > 60 µM (not active)

EC50 [3]: > 195 µM (not active)
Compound: Cc1cc(=O)oc2cc(OCC#N)ccc12

Compound: Cc1cc(C)nc(NC(=NC(=O)C(C)(C)C)NCCc2c[nH]c3ccccc23)n1
EC50 [1]: 2.34 µM (active)
EC50 [2]: > 60 µM (not active)

EC50 [3]: > 195 µM (not active)
Compound: COc1ccc(Cl)cc1NC(=O)CN(C)C(=O)Cn1cnc2c1c(=O)n(C)c(=O)n2C

EC50 [3]: > 195 µM (not active)
Compound: Cn1c(NC(=O)c2ccccc2NC(=O)C(C)(C)C)nc2ccccc21

EC50 [3]: > 195 µM (not active)
Compound: C=CCOCCN(CCOCC=C)C1=NS(=O)(=O)c2ccccc21

EC50 [3]: 169 µM (active)
Compound: CN(C)c1ccc(CNc2ccc3c(c2)ncn3C(C)(C)C)cc1

Compound: CCOC(=O)c1c(NC(=O)Cc2ccccc2)sc2c1CCN(C)C2
EC50 [1]: 0.109 µM (active)
EC50 [2]: > 60 µM (not active)

Compound: COc1ccc(CN2CCN(Cc3ccc(C)cc3)CC2)c(OC)c1
EC50 [1]: 0.22 µM (active)
EC50 [2]: > 60 µM (not active)

Compound: Cc1cccc(NC(=O)CSCC(=O)Nc2cc(Cl)ccc2N2CCN(C)CC2)c1
EC50 [1]: 2.41 µM (active)
EC50 [2]: > 60 µM (not active)

Compound: Cc1cccc(NC(=O)c2cc(-c3cc(C)cc(C)c3O)[nH]n2)c1
AC50 [6]: 2.86 µM (active)

EC50 [3]: 12.4 µM (active)
Compound: Cc1nnsc1[S+]([O-])c1ccc(Cl)c(Cl)c1 (stereo not drawn)

EC50 [3]: > 195 µM (not active)
Compound: CCN(Cc1ccccc1)C(=O)C1CCN(Cc2sccc2C)CC1

EC50 [3]: > 195 µM (not active)
Compound: CCc1cc2c(NCCC(=O)O)nc(C)nc2s1

EC50 [4]: > 53 µM (inactive)
Compound: O=C(Nc1cc(C(F)(F)F)ccc1Cl)c1cccnc1

Compound: Cc1cccc(C)c1OCc1cc(C(=O)N2C[C@@H]3C[C@H]4C[C@@H](C3)C[C@@H]2C4)no1
AC50 [6]: 1.27 µM (active)

Compound: Cc1cc(Br)c(NC(=O)CN2CC=C(c3ccccc3)CC2)c(Br)c1
EC50 [1]: 0.255 µM (active)
EC50 [2]: > 60 µM (not active)

EC50 [4]: 5.4 µM (active)
Compound: CC1(c2ccc(OC(F)F)cc2)NC(=O)N(CC(=O)c2ccc3c(c2)OCO3)C1=O (stereo not drawn)

Compound: O=C(c1cccc([N+](=O)[O-])c1)N1CCN(c2cccc(Cl)c2)CC1
EC50 [7]: 4.8 µM (active)
EC50 [8]: 5.22 µM (active)

Compound: O=C(Nc1ccc(Cl)c(Cl)c1)Nc1cc(S(=O)(=O)N2CCOCC2)ccc1N1CCCC1
EC50 [7]: 22.5 µM (active)
EC50 [8]: 20.3 µM (active)
